Data taken from patent US8426420B2, “Heterocyclic pyrazole-carboxamidesas P2Y12 antagonists” (Sanofi, priority 2007, dated 2013).

Assays:
[1] = tested on: human platelet rich plasma; assay: Inhibition of human platelet aggregation, 96-well assay; format: cell-based; conditions: Homo sapiens, Platelet, 20 min
In short: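 ADP-induced aggregation read as 650 nm absorbance every minute for 20 min at 37 °C, with shaking between reads. PRP (~3×E8 platelets/ml, diluted with PPP, ACD-A blood from healthy volunteers) was exposed to compound for 5 min before adding a 40 μM ADP stock (15 μl into 150 μl).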

[2] = tested on: human platelet rich plasma; assay: Inhibition of human platelet aggregation, "Born"-method using single cuvettes; format: cell-based; conditions: 0.1 h, ADP-induced aggregation, 6 minutes
Method: Inhibition of Human Platelet Aggregation
Alternatively to a binding assay which measures a compound's ability to bind to the P2Y12 receptor, the effect on cellular function was also determined. This ability of the compound was evaluated in two platelet aggregation assays: in 96-well plates and with the “Born”-method using single cuvettes.
Whole blood was collected from healthy volunteers using 20 ml syringes containing 2 ml of buffered Citrate. The anticoagulated whole blood was transferred into 15 ml polypropylene conical tubes (10 ml per tube). The tubes were centrifuged for 15 minutes at 340×g at RT without using the centrifuge brake. This procedure leads to a pellet of cellular components and a supernatant of platelet rich plasma (PRP). The PRP layer was collected from each tube and pooled for each donor. To avoid carry over of cellular components following centrifugation, approximately 5 ml of PRP was left in the tube. The platelet concentration was determined using a Coulter Counter.
The 15 ml tubes containing the pellet of cellular components were centrifuged again for 10 minutes at 1940×g. This pelleted out most particulate blood constituents remaining, leaving a layer of Platelet Poor Plasma (PPP). The PPP was collected for each donor. The PRP layer, previously set aside, was diluted with PPP to a final concentration of approximately 3×E8 platelets/ml with the PPP.
The human platelet aggregation assay is performed in single use cuvettes using the platelet aggregation profiler (PAP-4 or -8, Bio/Data corporation).
In the assay cuvette 4 μl of test compound at 100× final concentration in DMSO is mixed with 392 μl fresh PRP and incubated for 2 minutes at 37° C. with 1.200 rpm stirring. Following that incubation period, 4 μl of 250 μM ADP is added to the reaction mix. This addition of ADP is sufficient to induce aggregation in the absence of an inhibitor. After that aggregation is measured over 6 minutes at 37° C. with 1.200 rpm stirring. Results of the assay are expressed as % inhibition, and are calculated using maximum aggregation (Tmax) or area under curve (AUC) of the absorbance over 6 minutes.
The IC50 data of the above described platelet aggregation assay using human platelet rich plasma for exemplary compounds of the present invention are shown in table 3.

human P2Y12 receptor = human P2Y12 receptor (Homo sapiens, UniProt Q9H244); assay: Human P2Y12 recombinant cell membrane binding assay with 33P 2MeS-ADP; conditions: competition against 33P 2MeS-ADP, membranes of CHO cells with recombinant human P2Y12 receptor
In short: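 CHO membranes expressing human P2Y12 (20 μg/ml stock) preincubated 15 min at RT with compound in HEPES pH 7.4 buffer, then 33P 2MeS-ADP (1.61 nM working solution) added for 20 min at RT. Bound label filtered and counted; four-point, five-fold series from 10 μM final, triplicate, four-parameter fit.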

Sequence of human P2Y12 receptor (Q9H244 whole entry): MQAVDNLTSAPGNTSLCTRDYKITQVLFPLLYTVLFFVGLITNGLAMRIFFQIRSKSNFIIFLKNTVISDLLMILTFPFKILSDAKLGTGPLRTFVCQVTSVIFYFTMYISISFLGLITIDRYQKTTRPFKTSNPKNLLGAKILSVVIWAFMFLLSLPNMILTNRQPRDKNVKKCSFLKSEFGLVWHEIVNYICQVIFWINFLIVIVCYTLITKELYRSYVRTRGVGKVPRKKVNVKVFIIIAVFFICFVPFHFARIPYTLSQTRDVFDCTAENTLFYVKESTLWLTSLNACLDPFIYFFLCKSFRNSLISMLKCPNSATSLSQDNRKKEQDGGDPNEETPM

IC50 [1] [nM] | IC50 [2] [nM] | IC50 (human P2Y12 receptor) [nM] | SMILES
20 | 70 | 107 | CCOC(=O)N1CCN(C(=O)[C@H](CCC(=O)O)NC(=O)c2cc(OCC(=O)N3CCC[C@H]3C(=O)NC(C)(C)C)n(-c3ccccc3)n2)CC1 [Example 12, 4-{(S)-4-Carboxy-2-[(5-{2-[(S)-2-tert-butylcarbamoyl-pyrrolidin-1-yl]-2-oxo-ethoxy}-1-phenyl-1H-pyrazole-3-carbonyl)-amino]-butyryl}-piperazine-1-carboxylic acid ethyl ester]
130 | 120 | 164 | CCOC(=O)N1CCN(C(=O)[C@H](CCC(=O)O)NC(=O)c2cc(OCC(=O)N3CCC[C@H]3C(=O)NCC(F)F)n(-c3ccccc3)n2)CC1 [Example 15, 4-{(S)-4-Carboxy-2-[(5-{2-[(S)-2-(2,2-difluoro-ethylcarbamoyl)-pyrrolidin-1-yl]-2-oxo-ethoxy}-1-phenyl-1H-pyrazole-3-carbonyl)-amino]-butyryl}-piperazine-1-carboxylic acid ethyl ester]
100 | 72 | 50 | CCOC(=O)N1CCN(C(=O)[C@H](CCC(=O)O)NC(=O)c2cc(OCC(=O)N3CCC[C@H]3C(=O)NCC3CCC3)n(-c3ccccc3)n2)CC1 [Example 20, 4-{(S)-4-Carboxy-2-[(5-{2-[(S)-2-(cyclobutylmethyl-carbamoyl)-pyrrolidin-1-yl]-2-oxo-ethoxy}-1-phenyl-1H-pyrazole-3-carbonyl)-amino]-butyryl}-piperazine-1-carboxylic acid ethyl ester]
30 | 39 | 129 | CCOC(=O)N1CCN(C(=O)[C@H](CCC(=O)O)NC(=O)c2cc(OC(C)C(=O)N3CCC[C@H]3C(=O)NCC(F)(F)F)n(-c3ccccc3)n2)CC1 (stereo partly drawn) [Example 53, 4-{(S)-4-Carboxy-2-[(5-{1-methyl-2-oxo-2-[(S)-2-(2,2,2-trifluoro-ethylcarbamoyl)-pyrrolidin-1-yl]-ethoxy}-1-phenyl-1H-pyrazole-3-carbonyl)-amino]-butyryl}-piperazine-1-carboxylic acid ethyl ester]
20 | 60 | 70 | CCOC(=O)N1CCN(C(=O)[C@H](CC(=O)O)NC(=O)c2cc(OCC(=O)N3CCC[C@H]3C(=O)NCC3CC3)n(-c3ccccc3)n2)CC1 [Example 55, 4-{(S)-3-Carboxy-2-[(5-{2-[(S)-2-(cyclopropylmethyl-carbamoyl)-pyrrolidin-1-yl]-2-oxo-ethoxy}-1-phenyl-1H-pyrazole-3-carbonyl)-amino]-propionyl}-piperazine-1-carboxylic acid ethyl ester]
50 | 180 | 93 | CCOC(=O)N1CCN(C(=O)[C@H](CCC(=O)O)NC(=O)c2cc(O[C@H](C)C(=O)N3CCC[C@H]3C(=O)NC3CC3)n(-c3ccccc3)n2)CC1 [Example 61, 4-[(S)-4-Carboxy-2-({5-[(R)-2-((S)-2-cyclopropylcarbamoyl-pyrrolidin-1-yl)-1-methyl-2-oxo-ethoxy]-1-phenyl-1H-pyrazole-3-carbonyl}-amino)-butyryl]-piperazine-1-carboxylic acid ethyl ester]
130 | 58 | 17 | CCOC(=O)N1CCN(C(=O)[C@H](CCC(=O)O)NC(=O)c2cc(O[C@H](C)C(=O)N3CCC[C@H]3C(=O)NC3CCC3)n(-c3ccccc3)n2)CC1 [Example 62, 4-[(S)-4-Carboxy-2-({5-[(R)-2-((S)-2-cyclobutylcarbamoyl-pyrrolidin-1-yl)-1-methyl-2-oxo-ethoxy]-1-phenyl-1H-pyrazole-3-carbonyl}-amino)-butyryl]-piperazine-1-carboxylic acid ethyl ester]
